In patent US20150368669A1, “GENE DELIVERY SYSTEM […] GENE AND PHARMACEUTICAL COMPOSITION USING RELAXIN” (INDUSTRY-ACADEMIC COOPERATION FOUNDATION, YONSEI UNIVERSITY, priority 2004, published 2015):

Experiments:
Format in all cases: cell-based, human
U343 = assay: TUNEL assay, U343
Procedure: (§1) U343 (5×10^4), U87MG (5×10^4), C33A (5×10^5), Hep3B (4×10^5), and A549 (5×10^4) cells were plated onto a chamber slide and then infected with adenovirus at an MOT of 0.2-20. Following 24 hr and 48 hr of infection, medium was removed and TUNNEL assay was carried out according to the manufacturer's instruction of ApopTag kit (Intergen, Purchase, N.Y.). For color development, cells were incubated with peroxidase-conjugated streptavidin and then diaminobenzidine (DAKO, Carpinteria, Calif.). At the time that color of cells became brown, cells were counterstained with 0.5% methyl green for 10 min and observed under microscope in more than 4 selected fields. The ratio of stained cells to total cells was calculated.

A549 = assay: TUNEL assay, A549
Procedure: as §1

U87MG = assay: TUNEL assay, U87MG
Procedure: as §1

C33A = assay: TUNEL assay, C33A
Procedure: as §1

Hep3B = assay: TUNEL assay, Hep3B
Procedure: as §1

C33A cells = assay: Flow cytometry, Annexin-V and PI dual staining, C33A
Procedure: To examine apoptosis induced by relaxin, human tumor cell lines, U343, U87MG, C33A, Hep3B and A549, were introduced to 25 T culture flasks and 24 hr later, infected with Ad-ΔE1B or Ad-ΔE1B-RLX adenovirus at an MOT of 0.5-5. Cells were treated with 0.1-1 μM CPT-11 […] as a positive control and treated with PBS as a negative control. After 48 hr, 72 hr and 96 hr of infection, the infected cells were collected and fixed in 70% ethanol at 4° C. for 24 hr. Following the fixation, the cells were incubated with a mixture of PI (propidium iodide, […]) and RNase for 15 min and the analysis by flow cytometry was performed. In addition, to examine early apoptosis induced by relaxin, several human tumor cell lines were infected with Ad-ΔE1B or Ad-ΔE1B-RLX adenovirus as described above. The infected cells were collected and then processed for Annexin V/PI dual staining according to manufacturer's instruction in the ApoAlert V-FITC apoptosis kit (Clontech, Palo Alto, Calif.), followed by flow cytometric analysis.

CC[C@@]1(O)C(=O)OCc2c1cc1n(c2=O)Cc2cc3ccccc3nc2-1 [CPT, camptothecin]
Proportion of apoptotic cells (%) (U343): 53.5 ± 7.45%
Proportion of apoptotic cells (%) (A549): 37.5 ± 5.35%
Proportion of apoptotic cells (%) (U87MG): 83.0 ± 29.29%
Proportion of apoptotic cells (%) (C33A): 60.1 ± 25.41%
Proportion of apoptotic cells (%) (Hep3B): 71.2 ± 15.73%
apoptotic rate (Annexin-V+/PI−) (C33A cells): 57.10%
